Laboratory results: US20020137929A1, “1 - (3-heterocyclylphenyl) isothiourea, -isourea, -guanidine and -amidine herbicidal agents” (Intellectual Property Department, BASF Aktiengesellschaft, priority 1998, published 2002)

What was measured:
[1] = test system: SAGPY (Arrowhead (Pygmaea)); test: Preemergence weed control under flooded paddy conditions; format: in vivo, Sagittaria pygmaea; conditions: rated 3-4 weeks after treatment
In short: (§1)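 Visual injury scored 0-9 against control three to four weeks post-treatment, greenhouse-grown. Application: acetone/water (50/50) solutions dosed directly into flood water (1.5-3 cm over silt loam, planted top 0.5 cm), roughly 0.0313 to 0.500 kg/ha active ingredient.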

ORYSAT (Rice, Tebonnet) = test: Postemergence herbicidal evaluation; format: in vivo, Oryza sativa, (L.) Tebonnet; conditions: postemergence
In short: (§2)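 Seedlings grown about two weeks were sprayed at 40 psi with compound dispersed in 50/50 acetone/water plus 0.5% TWEEN 20, at about 0.0156 to 0.500 kg/ha. Plants were kept in the greenhouse and scored 4–5 weeks later on a 0–9 visual scale against untreated controls.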

GALAP (Galium) [2] = test: Preemergence herbicidal evaluation; format: in vivo, Galium aparine; conditions: rated 4-5 weeks after treatment; for GALAP rating: preemergence, 0-9 scale
In short: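 Rating at 4–5 wk post-spray on a 0–9 visual scale vs control. Application: aqueous acetone, ~0.0156–0.500 kg/ha, to soil surface after seeding, preemergence.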

CYPIR (Rice Flatsedge) = test: Preemergence weed control under flooded paddy conditions; format: in vivo, Cyperus iria; conditions: rated 3-4 weeks after treatment
In short: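 Silt loam, seeds in top 0.5 cm; flood held 1.5-3 cm; test cpd as acetone/water 50/50 into flood water, ~0.0313-0.500 kg/ha a.i.; greenhouse 3-4 wk; visual 0-9 score vs control.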

GALAP (Galium) [3] = test: Postemergence herbicidal evaluation; format: in vivo, Galium aparine; conditions: postemergence
In short: as §2

SETVI (Foxtail, Green) = test: Postemergence herbicidal evaluation; format: in vivo, Setaria viridis; conditions: postemergence
In short: as §2

ECHCG (Barnyardgrass) = test: Postemergence herbicidal evaluation; format: in vivo, Echinochloa crus-galli; conditions: postemergence
In short: as §2

AMBEL (Ragweed, Common) = test: Postemergence herbicidal evaluation; format: in vivo, Ambrosia artemisifolia; conditions: postemergence
In short: as §2

[4] = test system: CHEAL (Lambsquarters, Common); test: Postemergence herbicidal evaluation; format: in vivo, Chenopodium album; conditions: postemergence
In short: as §2

[5] = test system: GLXMAW (Soybean, Williams); test: Postemergence herbicidal evaluation; format: in vivo, Glycine max, (L.) Merr. cv Williams; conditions: postemergence
In short: as §2

CYPSE (Flatsedge) = test: Preemergence weed control under flooded paddy conditions; format: in vivo, Cyperus serotinus; conditions: rated 3-4 weeks after treatment
In short: as §1

CASOB (Sicklepod) [6] = test: Postemergence herbicidal evaluation; format: in vivo, Cassia obtusifolia; conditions: postemergence
In short: as §2

ZEAMX (Corn, Field) = test: Preemergence herbicidal evaluation; format: in vivo, Zea mays; conditions: rated 4-5 weeks after treatment; for ZEAMX rating: preemergence, 0-9 scale
Source text: (§3) Results of herbicide evaluation are expressed on a rating scale (0-9). The scale is based upon a visual observation of plant stand, vigor, malformation, size, chlorosis and overall plant appearance as compared with a control.
(§4) The preemergence herbicidal activity of the test compounds of the present invention is exemplified by the following tests in which the seeds of a variety of monocotyledonous and dicotyledonous plants are separately mixed with potting soil and planted on top of approximately one inch of soil in separate pint cups. After planting, the cups are sprayed with the selected aqueous acetone solution containing test compound in sufficient quantity to provide the equivalent of about 0.0156 to 0.500 kg per hectare of test compound per cup. The treated cups are then placed on greenhouse benches, watered and cared for in accordance with conventional greenhouse procedures. From four to five weeks after treatment, the tests are terminated and each cup is examined and rated according to the rating system provided in Example 37.
(§5) The compounds evaluated are reported by compound number given in Example 37.

CASOB (Sicklepod) [7] = test: Preemergence herbicidal evaluation; format: in vivo, Cassia obtusifolia; conditions: rated 4-5 weeks after treatment; for CASOB rating: preemergence, 0-9 scale
Source text: as §3, §4, §5

## C=CCOC(=O)CN1C(=O)CSC1=Nc1cc(-n2c(=O)cc(C(F)(F)F)n(C)c2=O)c(F)cc1Cl [Compound 106, Allyl 2-{{2-chloro-5-[3,6-dihydro-3-methyl-2,6-dioxo-4-(trifluoromethyl)-1(2H)-pyrimidinyl]-4-fluorophenyl}imino}-4-oxo-3-thiazolidineacetate]
[1]; 0.0313 kg/ha
  SAGPY herbicidal effect rating: 3.0
[1]; 0.0625 kg/ha
  SAGPY herbicidal effect rating: 4.0
[1]; 0.1250 kg/ha
  SAGPY herbicidal effect rating: 5.0
[1]; 0.2500 kg/ha
  SAGPY herbicidal effect rating: 7.0
ORYSAT (Rice, Tebonnet); rate 0.0158 kg/ha
  herbicidal rating ORYSAT: 2.0
ORYSAT (Rice, Tebonnet); rate 0.0315 kg/ha
  herbicidal rating ORYSAT: 2.5
ORYSAT (Rice, Tebonnet); rate 0.0630 kg/ha
  herbicidal rating ORYSAT: 4.0
GALAP (Galium) [2]; 0.0313 kg/ha
  GALAP rating: 2.0
GALAP (Galium) [2]; 0.0625 kg/ha
  GALAP rating: 3.0
GALAP (Galium) [2]; 0.1250 kg/ha
  GALAP rating: 6.0
GALAP (Galium) [2]; 0.2500 kg/ha
  GALAP rating: 7.0
GALAP (Galium) [2]; rate 0.0156 kg/ha
  Preemergence herbicidal rating GALAP: 1.0
CYPIR (Rice Flatsedge); 0.0313 kg/ha
  CYPIR herbicidal effect rating: 5.0
CYPIR (Rice Flatsedge); 0.0625 kg/ha
  CYPIR herbicidal effect rating: 6.0
CYPIR (Rice Flatsedge); 0.1250 kg/ha
  CYPIR herbicidal effect rating: 6.0
CYPIR (Rice Flatsedge); 0.2500 kg/ha
  CYPIR herbicidal effect rating: 9.0
GALAP (Galium) [3]; rate 0.0158 kg/ha
  herbicidal rating GALAP: 1.0
GALAP (Galium) [3]; rate 0.0315 kg/ha
  herbicidal rating GALAP: 1.0
GALAP (Galium) [3]; rate 0.0630 kg/ha
  herbicidal rating GALAP: 1.0
SETVI (Foxtail, Green); rate 0.0158 kg/ha
  herbicidal rating SETVI: 4.0
SETVI (Foxtail, Green); rate 0.0315 kg/ha
  herbicidal rating SETVI: 3.0
SETVI (Foxtail, Green); rate 0.0630 kg/ha
  herbicidal rating SETVI: 9.0
ECHCG (Barnyardgrass); rate 0.0158 kg/ha
  herbicidal rating ECHCG: 2.0
ECHCG (Barnyardgrass); rate 0.0315 kg/ha
  herbicidal rating ECHCG: 2.0
ECHCG (Barnyardgrass); rate 0.0630 kg/ha
  herbicidal rating ECHCG: 7.0
AMBEL (Ragweed, Common); rate 0.0158 kg/ha
  herbicidal rating AMBEL: 7.0
AMBEL (Ragweed, Common); rate 0.0315 kg/ha
  herbicidal rating AMBEL: 7.0
AMBEL (Ragweed, Common); rate 0.0630 kg/ha
  herbicidal rating AMBEL: 9.0
[4]; rate 0.0158 kg/ha
  herbicidal rating CHEAL: 7.0
[4]; rate 0.0315 kg/ha
  herbicidal rating CHEAL: 7.0
[4]; rate 0.0630 kg/ha
  herbicidal rating CHEAL: 7.0
[5]; rate 0.0158 kg/ha
  herbicidal rating GLXMAW: 4.5
[5]; rate 0.0315 kg/ha
  herbicidal rating GLXMAW: 5.5
[5]; rate 0.0630 kg/ha
  herbicidal rating GLXMAW: 6.0
CYPSE (Flatsedge); 0.0313 kg/ha
  CYPSE herbicidal effect rating: 0.0
CYPSE (Flatsedge); 0.0625 kg/ha
  CYPSE herbicidal effect rating: 0.0
CYPSE (Flatsedge); 0.1250 kg/ha
  CYPSE herbicidal effect rating: 2.0
CYPSE (Flatsedge); 0.2500 kg/ha
  CYPSE herbicidal effect rating: 6.0
CASOB (Sicklepod) [6]; rate 0.0158 kg/ha
  herbicidal rating CASOB: 1.0
CASOB (Sicklepod) [6]; rate 0.0315 kg/ha
  herbicidal rating CASOB: 1.0
CASOB (Sicklepod) [6]; rate 0.0630 kg/ha
  herbicidal rating CASOB: 3.0
ZEAMX (Corn, Field); 0.0313 kg/ha
  ZEAMX rating: 1.0
ZEAMX (Corn, Field); 0.0625 kg/ha
  ZEAMX rating: 2.5
ZEAMX (Corn, Field); 0.1250 kg/ha
  ZEAMX rating: 4.0
ZEAMX (Corn, Field); 0.2500 kg/ha
  ZEAMX rating: 5.0
ZEAMX (Corn, Field); rate 0.0156 kg/ha
  Preemergence herbicidal rating ZEAMX: 0.0
CASOB (Sicklepod) [7]; 0.0313 kg/ha
  CASOB rating: 1.5
CASOB (Sicklepod) [7]; 0.0625 kg/ha
  CASOB rating: 2.0
CASOB (Sicklepod) [7]; 0.1250 kg/ha
  CASOB rating: 4.0
CASOB (Sicklepod) [7]; 0.2500 kg/ha
  CASOB rating: 6.0
CASOB (Sicklepod) [7]; rate 0.0156 kg/ha
  Preemergence herbicidal rating CASOB: 0.0
